From ChEMBL document CHEMBL5506043, “A β-Carboline Derivate PAD4 Inhibitor Reshapes Neutrophil Phenotype and Improves the Tumor Immune Microenvironment against Triple-Negative Breast Cancer” (J Med Chem, 2024)
Activity calls are given as the source filed them. The rule behind the calls is not given here.

How the values were obtained:
4T1-Luc [1] = experiment: Antimetastatic activity against mouse orthotopic 4T1-Luc cells implanted in iv dosed female BALB/c mouse assessed as reduction in lung metastasis administered via tail vein every 2 days for 9 times for 17 days by IVIS live cell imaging analysis; format: functional, organism-based; details: dose 1-10 mg/kg, time 17.0 day
[2] = Toxicity in female BALB/c mouse implanted with mouse orthotopic 4T1-Luc cells assessed as morphological changes in spleen at 1 to 10 mg/kg, iv administered via tail vein every 2 days for 9 times for 17 days by H and E staining based analysis; format: organism-based; details: in vivo, 408 h, dose 1-10 mg/kg, time 17 day
MDA-MB-468 = experiment: Antiproliferative activity against human MDA-MB-468 cells assessed as inhibition of cell growth incubated for 48 hrs by MTT assay; format: functional, cell-based; details: MDA-MB-468, 48 h
[3] = biological target: Protein-arginine deiminase type-4 (Homo sapiens, UniProt Q9UM07); experiment: Inhibition of PAD4 (unknown origin) using Nalpha-benzoyl-L-arginine ethyl ester as substrate preincubated for 60 mins followed by substrate addition and measured after 90 mins by colorimetric analysis
[4] = Clearance in male Sprague-Dawley rat at 3.5 mg/kg, iv by LC-MS/MS analysis; format: ADME, organism-based; details: in vivo
4T1-Luc [5] = experiment: Antitumor activity against mouse orthotopic 4T1-Luc cells implanted in female BALB/c mouse assessed as improvement in animal survival at 10 mg/kg, iv administered via tail vein every 2 days for 9 times for 17 days and measured every 2 days; format: functional, organism-based; details: time 17.0 day
Mus musculus [6] = experiment: (§1) Induction of tumor microenvironment in female BALB/c mouse implanted with mouse orthotopic 4T1-Luc cells assessed as downregulation of myeloid derived suppressive G-MDSC cells at 1 to 10 mg/kg, iv administered via tail vein every 2 days for 9 times for 17 days by single-cell mass spectrometry flow cytometry analysis; format: functional, organism-based; details: dose 1-10 mg/kg, time 17.0 day
[7] = Toxicity in female BALB/c mouse implanted with mouse orthotopic 4T1-Luc cells assessed as morphological changes in kidney at 1 to 10 mg/kg, iv administered via tail vein every 2 days for 9 times for 17 days by H and E staining based analysis; format: organism-based; details: in vivo, 408 h, dose 1-10 mg/kg, time 17 day
[8] = Toxicity in female BALB/c mouse implanted with mouse orthotopic 4T1-Luc cells assessed as effect on serum urea level at 1 to 10 mg/kg, iv administered via tail vein every 2 days for 9 times for 17 days; format: organism-based; details: in vivo, 408 h, dose 1-10 mg/kg, time 17 day
[9] = Toxicity in female BALB/c mouse implanted with mouse orthotopic 4T1-Luc cells assessed as reduction in body weight at 1 to 10 mg/kg, iv administered via tail vein every 2 days for 9 times for 17 days and measured every 2 days; format: organism-based; details: in vivo, 408 h, dose 1-10 mg/kg, time 17 day
[10] = Cytotoxicity against human MCF-10A cells assessed as inhibition of cell growth incubated for 48 hrs by MTT assay; format: toxicity, cell-based
[11] = Toxicity in female BALB/c mouse implanted with mouse orthotopic 4T1-Luc cells assessed as effect on serum ALT level at 1 to 10 mg/kg, iv administered via tail vein every 2 days for 9 times for 17 days; format: organism-based; details: in vivo, 408 h, dose 1-10 mg/kg, time 17 day
4T1-Luc [12] = experiment: Antimetastatic activity against mouse orthotopic 4T1-Luc cells implanted in iv dosed female BALB/c mouse assessed as reduction in lung metastasis administered via tail vein every 2 days for 9 times for 17 days by H and E staining based analysis; format: functional, organism-based; details: dose 1-10 mg/kg, time 17.0 day
Mus musculus [13] = experiment: as §1, with “increase in proportion” for “downregulation”, “MHC-II-positive tumor-associated neutrophils” for “myeloid derived suppressive G-MDSC cells”; format: functional, organism-based; details: dose 1-10 mg/kg, time 17.0 day
[14] = AUC (0 to infinity) in male Sprague-Dawley rat at 3.5 mg/kg, iv by LC-MS/MS analysis; format: ADME, organism-based; details: in vivo
[15] = biological target: Protein-arginine deiminase type-4 (Mus musculus) (UniProt Q9Z183); experiment: Inhibition of PAD4 in mouse 4T1 cells assessed as reduction in histone H3 citrullination at 2 uM by immunofluorescence analysis; format: cell-based
4T1-Luc [16] = experiment: Antimetastatic activity against mouse orthotopic 4T1-Luc cells implanted in iv dosed female BALB/c mouse assessed as reduction in lung metastasis by measuring reduction in metastatic lung nodules administered via tail vein every 2 days for 9 times for 17 days; format: functional, organism-based; details: dose 1-10 mg/kg, time 17.0 day
[17] = Tmax in male Sprague-Dawley rat at 3.5 mg/kg, iv by LC-MS/MS analysis; format: ADME, organism-based; details: in vivo
4T1 = experiment: Upregulation of feedback regulation-mediated PAD4 protein expression in mouse 4T1 cells at 0.5 to 2 uM measured after 48 hrs by immunoblot analysis; format: functional, cell-based; details: dose 0.5-2 µM
Mus musculus [18] = experiment: as §1, with “M-MDSC” for “G-MDSC”; format: functional, organism-based; details: dose 1-10 mg/kg, time 17.0 day
Mus musculus [19] = experiment: Induction of tumor microenvironment in female BALB/c mouse implanted with mouse orthotopic 4T1-Luc cells assessed as decrease in PD-L1 expression for PD-L1-positive/MHC-II-positive tumor-associated neutrophils at 1 to 10 mg/kg, iv administered via tail vein every 2 days for 9 times for 17 days; format: functional, organism-based; details: dose 1-10 mg/kg, time 17.0 day
[20] = Terminal half life in male Sprague-Dawley rat at 3.5 mg/kg, iv by LC-MS/MS analysis; format: ADME, organism-based; details: in vivo
Mus musculus [21] = experiment: Induction of tumor microenvironment in female BALB/c mouse implanted with mouse orthotopic 4T1-Luc cells assessed as increase in MHC-II expression for MHC-II-positive tumor-associated neutrophils at 1 to 10 mg/kg, iv administered via tail vein every 2 days for 9 times for 17 days; format: functional, organism-based; details: dose 1-10 mg/kg, time 17.0 day
[22] = Toxicity in female BALB/c mouse implanted with mouse orthotopic 4T1-Luc cells assessed as morphological changes in heart at 1 to 10 mg/kg, iv administered via tail vein every 2 days for 9 times for 17 days by H and E staining based analysis; format: organism-based; details: in vivo, 408 h, dose 1-10 mg/kg, time 17 day
[23] = Antitumor activity against mouse orthotopic 4T1-Luc cells implanted in female BALB/c mouse assessed as tumor growth inhibition at 10 mg/kg, iv administered via tail vein every 2 days for 9 times for 17 days and measured every 2 days relative to control; format: functional; details: 408 h, time 17 day, read-out: TGI
[24] = Cmax in male Sprague-Dawley rat at 3.5 mg/kg, iv by LC-MS/MS analysis; format: ADME, organism-based; details: in vivo
Mus musculus [25] = experiment: as §1, with “m1 macrophage polarization by measuring upregulation” for “downregulation”, “conventional dendritic” for “myeloid derived suppressive G-MDSC”; format: functional, organism-based; details: dose 1-10 mg/kg, time 17.0 day
[26] = Toxicity in female BALB/c mouse implanted with mouse orthotopic 4T1-Luc cells assessed as effect on viscero-somatic ratio at 1 to 10 mg/kg, iv administered via tail vein every 2 days for 9 times for 17 days; format: organism-based; details: in vivo, 408 h, dose 1-10 mg/kg, time 17 day
4T1-Luc [27] = experiment: Antitumor activity against mouse orthotopic 4T1-Luc cells implanted in iv dosed female BALB/c mouse assessed as inhibition of tumor growth administered via tail vein every 2 days for 9 times for 17 days and measured every 2 days by IVIS live cell imaging analysis; format: functional, organism-based; details: dose 1-10 mg/kg, time 17.0 day
4T1-Luc [28] = experiment: Antitumor activity against mouse orthotopic 4T1-Luc cells implanted in iv dosed female BALB/c mouse assessed as reduction in tumor weight administered via tail vein every 2 days for 9 times for 17 days and measured every 2 days; format: functional, organism-based; details: dose 1-10 mg/kg, time 17.0 day
[29] = biological target: Protein-arginine deiminase type-4 (Mus musculus) (UniProt Q9Z183); experiment: Inhibition of PAD4 in BALB/c mouse bone marrow neutrophils assessed as reduction in histone H3 citrullination at 2 uM preincubated for 2 hrs followed by calcium ionophore A23187 addition and measured after 2 hrs by Hoechst 33342/Ly6G staining based laser confocal microscopic analysis; details: Neutrophil, time 4.0 hrs

Protein-arginine deiminase type-4 (Mus musculus), sequence (Q9Z183 whole entry): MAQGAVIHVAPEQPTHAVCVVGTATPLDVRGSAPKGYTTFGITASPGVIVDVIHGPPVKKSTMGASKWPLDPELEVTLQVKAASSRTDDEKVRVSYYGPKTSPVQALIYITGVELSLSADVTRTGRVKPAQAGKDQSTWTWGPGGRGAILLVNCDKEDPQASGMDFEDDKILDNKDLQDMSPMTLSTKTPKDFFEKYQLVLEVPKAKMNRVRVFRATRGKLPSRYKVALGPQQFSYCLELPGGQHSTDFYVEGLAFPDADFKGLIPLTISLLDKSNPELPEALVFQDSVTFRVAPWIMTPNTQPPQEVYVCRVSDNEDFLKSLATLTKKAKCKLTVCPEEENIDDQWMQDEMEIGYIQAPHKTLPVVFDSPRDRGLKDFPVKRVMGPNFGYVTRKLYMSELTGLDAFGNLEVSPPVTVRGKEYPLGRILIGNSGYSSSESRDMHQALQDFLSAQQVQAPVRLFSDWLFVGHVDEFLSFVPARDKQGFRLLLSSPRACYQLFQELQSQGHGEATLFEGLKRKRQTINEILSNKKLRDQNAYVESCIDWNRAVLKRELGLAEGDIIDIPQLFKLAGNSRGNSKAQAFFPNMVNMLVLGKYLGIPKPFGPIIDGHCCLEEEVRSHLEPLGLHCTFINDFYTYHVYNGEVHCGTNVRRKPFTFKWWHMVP
Protein-arginine deiminase type-4, sequence (Q9UM07 whole entry): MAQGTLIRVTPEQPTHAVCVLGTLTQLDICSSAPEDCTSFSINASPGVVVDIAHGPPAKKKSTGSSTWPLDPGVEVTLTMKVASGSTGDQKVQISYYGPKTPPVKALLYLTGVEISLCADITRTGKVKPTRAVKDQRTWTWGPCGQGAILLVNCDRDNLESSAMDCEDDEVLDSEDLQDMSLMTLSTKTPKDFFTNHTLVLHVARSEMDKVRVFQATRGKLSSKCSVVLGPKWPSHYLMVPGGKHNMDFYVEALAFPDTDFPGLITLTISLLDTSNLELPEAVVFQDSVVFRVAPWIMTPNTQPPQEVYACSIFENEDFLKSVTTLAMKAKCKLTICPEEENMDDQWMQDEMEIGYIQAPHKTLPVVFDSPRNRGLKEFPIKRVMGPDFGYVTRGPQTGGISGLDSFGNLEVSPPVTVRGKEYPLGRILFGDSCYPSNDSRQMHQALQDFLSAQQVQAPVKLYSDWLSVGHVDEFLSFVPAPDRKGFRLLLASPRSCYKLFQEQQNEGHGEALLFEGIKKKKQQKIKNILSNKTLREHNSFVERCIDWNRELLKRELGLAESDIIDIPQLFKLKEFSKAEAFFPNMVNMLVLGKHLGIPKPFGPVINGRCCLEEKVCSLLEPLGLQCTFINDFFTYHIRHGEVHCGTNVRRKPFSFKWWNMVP

N=C(CCl)NCCC[C@H](NC(=O)c1cc2c([nH]c3ccccc32)c(-c2ccccc2)n1)C(=O)NCc1ccccc1
Activity (4T1-Luc [1]): Dose-Dependent Effect | Activity [2]: Non-Toxic | IC50 (MDA-MB-468): 2.34 µM | IC50 [3]: 0.79 µM | CL [4]: 1754 mL/min/kg | Activity (4T1-Luc [5]): Active | Activity (Mus musculus [6]): Active | Activity [7]: Non-Toxic | Activity [8]: Non-Toxic | Activity [9]: Non-Toxic | IC50 at 48 h [10]: 8.39 µM | Activity [11]: Non-Toxic | Activity (4T1-Luc [12]): Dose-Dependent Effect | Activity (Mus musculus [13]): Active | AUC [14]: 17346.55 ng·h/mL | inhibition [15]: Active | Activity (4T1-Luc [16]): Dose-Dependent Effect | Tmax [17]: 4.8 min | Activity (4T1): Active | Activity (Mus musculus [18]): Active | Activity (Mus musculus [19]): Active | beta t1/2 [20]: 15 min | Activity (Mus musculus [21]): Active | Activity [22]: Non-Toxic | inhibition in vivo at 10 mg/kg [23]: 61.8% | Cmax [24]: 297.71 ng/mL | Activity (Mus musculus [25]): Active | Activity [26]: Non-Toxic | Activity (4T1-Luc [27]): Dose-Dependent Effect | Activity (4T1-Luc [28]): Dose-Dependent Effect | inhibition [29]: Active
